Assay [1] deals with T1, Dopamine beta hydroxylase (Rattus norvegicus, UniProt Q05754).
T1 construct: Samples were constituted by the right and left adrenals of each animal; from tissue; host or cells: Wistar rat adrenal glands (homogenate)
T1 sequence (Q05754 1-620): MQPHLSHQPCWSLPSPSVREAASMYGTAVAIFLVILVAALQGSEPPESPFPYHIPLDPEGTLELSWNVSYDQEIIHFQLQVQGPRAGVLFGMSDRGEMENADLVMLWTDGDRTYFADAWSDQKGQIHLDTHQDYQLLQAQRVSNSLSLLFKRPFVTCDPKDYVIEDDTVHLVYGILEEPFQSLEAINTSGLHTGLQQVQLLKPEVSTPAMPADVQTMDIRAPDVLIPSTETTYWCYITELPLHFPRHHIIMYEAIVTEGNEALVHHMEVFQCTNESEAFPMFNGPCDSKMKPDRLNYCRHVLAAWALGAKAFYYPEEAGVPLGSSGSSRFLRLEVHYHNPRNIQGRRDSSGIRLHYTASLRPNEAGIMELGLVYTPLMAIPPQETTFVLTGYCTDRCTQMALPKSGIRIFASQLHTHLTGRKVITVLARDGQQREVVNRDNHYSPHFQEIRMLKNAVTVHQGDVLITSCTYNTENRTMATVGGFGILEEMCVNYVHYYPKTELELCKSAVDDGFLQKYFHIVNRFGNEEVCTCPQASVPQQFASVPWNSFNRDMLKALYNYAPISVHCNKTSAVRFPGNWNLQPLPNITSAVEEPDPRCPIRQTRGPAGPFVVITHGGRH
Briefly: DβH activity in rat adrenal gland homogenates after oral administration. The assay is classed as in vivo. To be noted: 10 mg/kg oral; for DβH activity in ADR (% Control): rat adrenal gland homogenates, maximal within 6 h post-dose, mean±SD of 4 rats; for DβH inhibition in peripheral tissues such as ADR: rat. The procedure:
Dopamine beta hydroxylase activity in rat adrenal gland homogenates was measured by the method of Nagatsu and Udenfriend (Nagatsu, T. and Udenfriend, S. “Photometric assay of dopamine-μ-hydroxylase activity in human blood.” Clin. Chem. 18(9) 980-983, 1972) with minor modifications. Catalase, N-ethylmaleimide, tyramine, disodium fumarate, pargyline, sodium acetate, ascorbic acid, copper sulfate and octopamine were obtained from Sigma Chemical Co., St. Louis, Mo. 63178. Test compounds were prepared in kleptose 40% at a concentration of 0.75, 2.5 or 7.5 mg/mL to be administered at a dose of 10 mg/kg. Compounds and vehicle (kleptose 40%) were administered to wistar rats and adrenals were collected 0.5 h, 1 h, 2 h, 4 h, 6 h, 8 h, 15 h and 24 h after administration. Samples were constituted by the right and left adrenals of each animal. Adrenals were stored in 200 μL of 50 mM Tris pH 7.4 at −30° C., from date of collection. The samples were homogenized and homogenates were then quantified for protein. Protein concentration was adjusted to 1.6 mg/ml. The various reagents used to make up the incubation buffer were premixed and consisted of the following components: sodium acetate buffer (1 M, pH 5.0, 6.0 mL), sodium fumarate (0.2 M, 1.5 mL), ascorbic acid (0.2 M, 1.5 mL, freshly prepared), pargyline (20 mM, freshly prepared, 1.5 mL), N-ethylmaleimide (0.2 M, 1.5 mL), catalase (55 000 U/ml, 3 mL), copper sulfate (90 μM, 1.67 mL) and ultrapure water (1.33 mL). The standard incubation mixture (total volume, 500 μL) contained: 350 μL of incubation buffer; 125 μL of protein sample (or buffer for blank reaction or standard curve). The reaction mixture was placed in water bath with shaking at 37° C. and pre-incubated for 10 minutes. Tyramine (0.4 M, 25 μL) was added and incubation proceeded for 45 minutes. The reaction contents were exposed to air. A sample of enzyme preparation (with 125 μL of protein sample) that had been added perchloric acid 2 M at the end of the pre-incubation period was used as blank. A blank for each of the tested compounds was used. For octopamine standard curve, perchloric acid 2 M was replaced by increasing concentrations of octopamine prepared in perchloric acid 2 M (0.5, 1, 2.5, 5, 7.5, 10 μg/mL, final concentration). The incubation was stopped by adding 50 μL of 2 M molar perchloric acid, and the mixture was centrifuged at 16000 g for 3 min. The supernatant fluid (500 μL) was transferred to a column (SPE cartridge ISOLUTE SCX-3, 100 mg) and centrifuged at 150 g for 2 min. The column was washed two more times with 0.5 ml of ultrapure water by centrifuging at 150 g for 2 min. The adsorbed octopamine was eluted twice with 250 μL of 4 M ammonium hydroxide by centrifuging at 150 g for 2 min. Octopamine in the eluate was then converted to p-hydroxybenzaldehyde by adding 100 μL of sodium periodate (2%) and incubating for 6 min. Excess periodate was than reduced by adding 100 μl of sodium metabisulfite (10%). Absorbance was measured at […] in a 96 well plate by use of a SpectraMAX plus 384 (Molecular Devices) with software SOFTmax® PRO Software 5.3 spectrophotometer. Absorbance was linear with octopamine concentration from 0.5 to 10 μg/mL. Dopamine beta hydroxylase activity is determined as nmol of octopamine formed/mg of protein/hour and effect of compounds is presented as % of control.

Assay [2] relates to noradrenaline (NA) in brain stem. Briefly: Catecholamine determination: noradrenaline in brain stem after oral administration. To be noted: 10 mg/kg oral; for NA in Br.s (% Control): rat brain stem noradrenaline, 15 h post-dose, mean±SD of 4 rats; for effect on levels of NA in CNS tissues such as brain stem: rat. The assay is classed as in vivo, Wistar rats. The procedure: Catecholamines quantification in brain stem was performed as previously described (Bonifacio, M. J.; Sousa, F.; Neves, M.; Palma, N.; Igreja, B.; Pires, N. M.; Wright, L. C.; Soares-da-Silva, P. “Characterization of the interaction of the novel anthyhypertensive etamicastat with human dopamine-beta-hydroxylase: comparison with nepicastat.” Eur. J. Pharmacol. 751, 50-58, 2015) with minor modifications. Test compounds were prepared in 40% of kleptose at a concentration of 2.5 mg/ml to be administered at a dose of 10 mg/kg. Compounds and vehicle (kleptose 40%) were administered to Wistar rats and tissues (brain stem or heart left ventricle) collected in perchloric acid (0.2M) at defined time points after administration. Tissues were stored overnight at 4° C. and the solution was then filtered by centrifugation (1500 g, 4 min, 4° C.) through 0.22 μm pore size filters (Costar Spin-x from Corning Inc., USA). Catecholamines were quantified in filtrates by directly injecting 50 μl of sample volume on a HPLC system with electrochemical detection, using a Spheri-5RP-185 mm column (Perkin-Elmer). Mobile phase consisted of a solution containing 0.1M citric acid, 0.1M sodium acetate, 0.15 mM EDTA, 1 mM dibutylamine, 1 mM octylsulfate, and 5% methanol adjusted to pH 3.5 with perchloric acid.

Structures can show the parent of a compound that is named as a salt.

Consider `Cl.Fc1ccc(Cl)cc1[C@]12C[C@H]1c1c(CCN3CCOCC3)[nH]c(=S)n1C2` [Example 174, (5aS,6aR)-5a-(5-chloro-2-fluorophenyl)-1-(2-morpholinoethyl)-5,5a,6,6a-tetrahydrocyclopropa[3,4]pyrrolo[1,2-c]imidazole-3(2H)-thione hydrochloride], for which, in assay [1], the “DβH activity in ADR (% Control)” value worked out at 39 ± 18 % Control and the “DβH inhibition in peripheral tissues such as ADR” value (shortened to “DβH inhibition”) is recorded as “inhibit DβH”. In assay [2], the “NA in Br.s (% Control)” value turned out to be 84 ± 8 % Control and the “effect on levels of NA in CNS tissues such as brain stem” value (“effect on levels of NA” below) was “failed to reduce levels of NA”.

With `F.Fc1ccc(Br)cc1[C@]12C[C@H]1c1c(CCN3CCOCC3)[nH]c(=S)n1C2` [Example 191, (5aS,6aR)-5a-(5-bromo-2-fluorophenyl)-1-(2-morpholinoethyl)-5,5a,6,6a-tetrahydrocyclopropa[3,4]pyrrolo[1,2-c]imidazole-3(2H)-thione hydrofluoride], in assay [1], the “DβH activity in ADR (% Control)” value came to 45 ± 8 % Control and the “DβH inhibition” value is “inhibit DβH”. Further, in assay [2], the “NA in Br.s (% Control)” value is listed as 83 ± 10 % Control and the “effect on levels of NA” value is given as “failed to reduce levels of NA”.

Consider `Fc1ccc(Br)c(F)c1[C@@H]1Cc2c(CCN3CCOCC3)[nH]c(=S)n2C1` [Example 195, (S)-6-(3-bromo-2,6-difluorophenyl)-1-(2-morpholinoethyl)-2,5,6,7-tetrahydro-3H-pyrrolo[1,2-c]imidazole-3-thione], for which, in assay [1], the “DβH activity in ADR (% Control)” value amounted to 21 ± 9 % Control and the “DβH inhibition” value was “inhibit DβH”. Further, in assay [2], the “NA in Br.s (% Control)” value turned out to be 123 ± 55 % Control and the “effect on levels of NA” value was “failed to reduce levels of NA”.

On to `Fc1cc(F)c(F)c([C@H]2Cc3c(CCCN4CCCC4)[nH]c(=S)n3C2)c1F` [Example 219, (R)-1-(3-(pyrrolidin-1-yl)propyl)-6-(2,3,5,6-tetrafluorophenyl)-2,5,6,7-tetrahydro-3H-pyrrolo[1,2-c]imidazole-3-thione hydrochloride], for which, in assay [1], the “DβH activity in ADR (% Control)” value was found to be 43 ± 16 % Control and the “DβH inhibition” value is on record as “inhibit DβH”. Besides, in assay [2], the “NA in Br.s (% Control)” value was determined as 92 ± 23 % Control and the “effect on levels of NA” value was “failed to reduce levels of NA”.

As to `Cn1c(CC(=O)O)c2n(c1=S)C[C@@]1(c3c(F)ccc(Cl)c3F)C[C@@H]21` [Example 231, 2-((5aS,6aR)-5a-(3-chloro-2,6-difluorophenyl)-2-methyl-3-thioxo-2,3,5,5a,6,6a-hexahydrocyclopropa[3,4]pyrrolo[1,2-c]imidazol-1-yl)acetic Acid], in assay [1], the “DβH activity in ADR (% Control)” value is recorded as 43 ± 9 % Control and the “DβH inhibition” value is listed as “inhibit DβH”. Further, in assay [2], the “NA in Br.s (% Control)” value worked out at 99 ± 14 % Control and the “effect on levels of NA” value was “failed to reduce levels of NA”.

Take `Cl.Cn1c(CCN[C@@H]2CCOC2)c2n(c1=S)C[C@H](c1c(F)ccc(Br)c1F)C2` [Example 256, (S)-6-(3-bromo-2,6-difluorophenyl)-2-methyl-1-(2-(((R)-tetrahydrofuran-3-yl)amino)ethyl)-2,5,6,7-tetrahydro-3H-pyrrolo[1,2-c]imidazole-3-thione hydrochloride]: in assay [1], the “DβH activity in ADR (% Control)” value was 44 ± 22 % Control and the “DβH inhibition” value was “inhibit DβH”. Further, in assay [2], the “NA in Br.s (% Control)” value stood at 128 ± 64 % Control and the “effect on levels of NA” value was “failed to reduce levels of NA”.

For the compound `CN(C(=O)Cc1c2n(c(=S)n1C)C[C@@]1(c3c(F)ccc(Cl)c3F)C[C@@H]21)C1COC1` [Example 403, 2-((5aS,6aR)-5a-(3-chloro-2,6-difluorophenyl)-2-methyl-3-thioxo-2,3,5,5a,6,6a-hexahydrocyclopropa[3,4]pyrrolo[1,2-c]imidazol-1-yl)-N-methyl-N-(oxetan-3-yl)acetamide], in assay [1], the “DβH activity in ADR (% Control)” value is 0 ± 0 % Control and the “DβH inhibition” value was “inhibit DβH”. In assay [2], the “NA in Br.s (% Control)” value turned out to be 87 ± 16 % Control and the “effect on levels of NA” value is given as “failed to reduce levels of NA”.

The record behind these values is US11434242B2, “Dopamine-b-hydroxylase inhibitors” (BIAL-PORTELA & Cª, S.A., priority 2017, dated 2022).
